Laboratory results from patent US8242275B2, “Bicyclic pyrazole compounds as antibacterial agents” (Janssen Pharmaceutica NV, priority 2005, dated 2012).
Converted amounts (≈) assume the structure as drawn.

Legend:
E. coli DNA gyrase = biological target: T1, E. coli DNA gyrase (Escherichia coli, UniProt P0AES4+P0AES6); experiment: DNA gyrase inhibition assay (supercoiling); format: biochemical; conditions: E. coli DNA gyrase supercoiling, visual inspection of gels; read-out: DNA Gyrase IC50 (converted)
T1 construct: purchased John Innes Enterprises Ltd. (John Innes Centre, UK)
T1 sequence (P0AES4 whole entry, one chain of several): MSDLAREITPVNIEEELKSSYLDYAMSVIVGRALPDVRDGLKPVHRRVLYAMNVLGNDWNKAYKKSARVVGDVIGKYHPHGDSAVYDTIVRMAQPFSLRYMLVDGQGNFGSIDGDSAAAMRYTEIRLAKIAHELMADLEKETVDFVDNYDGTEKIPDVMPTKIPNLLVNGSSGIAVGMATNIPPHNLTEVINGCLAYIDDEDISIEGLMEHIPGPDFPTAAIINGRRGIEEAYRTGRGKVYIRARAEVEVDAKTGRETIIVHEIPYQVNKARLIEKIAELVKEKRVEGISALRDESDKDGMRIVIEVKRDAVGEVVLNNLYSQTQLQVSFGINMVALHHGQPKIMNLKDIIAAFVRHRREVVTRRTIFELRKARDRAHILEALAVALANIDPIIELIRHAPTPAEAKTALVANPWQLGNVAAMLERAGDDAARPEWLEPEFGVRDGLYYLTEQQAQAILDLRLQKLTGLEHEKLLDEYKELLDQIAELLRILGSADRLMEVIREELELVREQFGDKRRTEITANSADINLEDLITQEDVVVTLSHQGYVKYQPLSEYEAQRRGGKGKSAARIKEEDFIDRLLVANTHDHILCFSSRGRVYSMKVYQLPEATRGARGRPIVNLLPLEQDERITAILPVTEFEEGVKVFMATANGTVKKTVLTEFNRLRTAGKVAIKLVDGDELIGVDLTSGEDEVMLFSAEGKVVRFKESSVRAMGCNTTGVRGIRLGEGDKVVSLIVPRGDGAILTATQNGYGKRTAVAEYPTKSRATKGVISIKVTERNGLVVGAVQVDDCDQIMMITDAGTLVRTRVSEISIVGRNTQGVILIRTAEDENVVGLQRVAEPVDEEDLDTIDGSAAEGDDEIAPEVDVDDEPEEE
Method: Inhibition of the supercoiling activity of E. coli DNA gyrase was determined using enzymes, buffers and substrates received from John Innes Enterprises Ltd. (John Innes Centre, UK). The reactions were performed according to the manufacturer's directions, with the following modifications.
DNA supercoiling reactions were carried out in a total reaction volume of 20 μL containing 250 ng of relaxed pBR322, 35 mM Tris-HCl (pH 7.5), 24 mM KCl, 4 mM MgCl2, 2 mM dithiothreitol, 1.8 mM spermidine, 1 mM ATP, 6.5% glycerol and 100 μg/mL albumin. Compounds diluted in 10% DMSO were added to the reaction mixture to reach a final concentration of 0.5% DMSO. Enzyme was diluted to […] in a solution of 50 mM Tris-HCl (pH 7.5), 100 mM KCl, 2 mM dithiothreitol, 1 mM EDTA, and 50% glycerol. Diluted enzyme (0.2 unit) was added to each reaction.
The reactions were incubated at 37° C. for 30 min. The reactions were then cooled to 0° C., followed by addition of 3 μL of 40% glycerol, 100 mM Tris-HCl (pH 7.5), 50 mM EDTA, 0.5% SDS and 0.1% bromophenol blue. Samples were separated on 1.0% agarose gels. Gels were stained with Ethidium bromide and photographed with a Stratagene Eagle Eye II.

[1] = system: E. coli KL-16 (GSC strain 4245); experiment: In vitro antibacterial activity (MIC assay), broth microdilution; format: cell-based; conditions: Escherichia coli
Summary of the method: (§1)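 Broth microdilution per NCCLS M7-A5: 11-point 2-fold compound dilutions from DMSO stocks, inoculum about 5×10^5 CFU/mL, incubation 35° C for 16–24 h. MIC scored visually against no-compound growth controls, in μg/mL.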

S. aureus ATCC13709 = experiment: as above; format: cell-based; conditions: Staphylococcus aureus, ATCC13709; read-out: S. aureus ATCC13709 MIC
Summary of the method: as §1

S. pneumoniae ATCC49619 = experiment: as above; format: cell-based; conditions: Streptococcus pneumoniae, ATCC49619; read-out: S. pneumoniae ATCC49619 MIC
Summary of the method: as §1

Structure (SMILES)	IC50 (E. coli DNA gyrase)	MIC [1]	MIC (S. aureus ATCC13709)	MIC (S. pneumoniae ATCC49619)
COc1ccc2nccc(-n3cc4c(n3)CCC(NC(=O)C(=O)c3cc5ccccc5[nH]3)C4)c2n1 (stereo not shown) [Example 9, 2-(1H-Indol-2-yl)-N-[2-(6-methoxy-[1,5]naphthyridin-4-yl)-4,5,6,7-tetrahydro-2H-indazol-5-yl]-2-oxo-acetamide]	> 34.3 µM	> 128 µg/mL	0.25 µg/mL (≈ 0.536 µM)	4 µg/mL (≈ 8.57 µM)
COc1ccc2nccc(-n3cc4c(n3)CCC(NC(=O)c3cc5c(cc3Cl)SCC(=O)N5)C4)c2n1 (stereo not shown) [Example 6, 7-Chloro-3-oxo-3,4-dihydro-2H-benzo[1,4]thiazine-6-carboxylic acid [2-(6-methoxy-[1,5]naphthyridin-4-yl)-4,5,6,7-tetrahydro-2H-indazol-5-yl]-amide]	0.23 µM	2 µg/mL (≈ 3.84 µM)	< 0.125 µg/mL	4 µg/mL (≈ 7.68 µM)
COc1ccc2nccc(-n3cc4c(n3)CCC(NC/C=C/c3cccnc3)C4)c2n1 (stereo not shown) [Example 47, [2-(6-Methoxy-[1,5]naphthyridin-4-yl)-4,5,6,7-tetrahydro-2H-indazol-5-yl]-(3-pyridin-3-yl-allyl)-amine]	4.85 µM	128 µg/mL (≈ 310 µM)	1 µg/mL (≈ 2.42 µM)	4 µg/mL (≈ 9.7 µM)
COc1ccc2nccc(-n3cc4c(n3)CCC(NC(=O)/C=C/c3ccccn3)C4)c2n1 (stereo not shown) [Example 95, N-[2-(6-Methoxy-[1,5]naphthyridin-4-yl)-4,5,6,7-tetrahydro-2H-indazol-5-yl]-3-pyridin-2-yl-acrylamide]	> 37.5 µM	> 128 µg/mL	2 µg/mL (≈ 4.69 µM)	8 µg/mL (≈ 18.8 µM)
COc1ccc2nccc(-n3cc4c(n3)CCC(NC(=O)c3cc5cc(Cl)ccc5[nH]3)C4)c2c1 (stereo not shown) [Example 77, 5-Chloro-1H-indole-2-carboxylic acid [2-(6-methoxy-quinolin-4-yl)-4,5,6,7-tetrahydro-2H-indazol-5-yl]-amide]	> 33.9 µM	> 128 µg/mL	2 µg/mL (≈ 4.24 µM)	16 µg/mL (≈ 33.9 µM)
COc1ccc2nccc(-n3cc4c(n3)CCC(NC(=O)c3cc5cc(C)ccc5[nH]3)C4)c2c1 (stereo not shown) [Example 75, 5-Methyl-1H-indole-2-carboxylic acid [2-(6-methoxy-quinolin-4-yl)-4,5,6,7-tetrahydro-2H-indazol-5-yl]-amide]	> 35.4 µM	> 128 µg/mL	4 µg/mL (≈ 8.86 µM)	16 µg/mL (≈ 35.4 µM)
COc1ccc2nccc(-n3cc4c(n3)CCC(NC(=O)c3ccc(C(C)=O)s3)C4)c2c1 (stereo not shown) [Example 73, 5-Acetyl-thiophene-2-carboxylic acid [2-(6-methoxy-quinolin-4-yl)-4,5,6,7-tetrahydro-2H-indazol-5-yl]-amide]	> 35.8 µM	> 128 µg/mL	4 µg/mL (≈ 8.96 µM)	64 µg/mL (≈ 143 µM)
COc1ccc2nccc(-n3cc4c(n3)CCC(NC(=O)/C=C/c3ccc(F)cc3F)C4)c2n1 (stereo not shown) [Example 120, 3-(2,4-Difluoro-phenyl)-N-[2-(6-methoxy-[1,5]naphthyridin-4-yl)-4,5,6,7-tetrahydro-2H-indazol-5-yl]-acrylamide]	4.33 µM	> 128 µg/mL	0.125 µg/mL (≈ 0.271 µM)	4 µg/mL (≈ 8.67 µM)
COc1ccc2nccc(-n3cc4c(n3)CCC(NC(=O)c3nc5ccccc5[nH]3)C4)c2n1 (stereo not shown) [Example 8, 1H-Benzoimidazole-2-carboxylic acid [2-(6-methoxy-[1,5]naphthyridin-4-yl)-4,5,6,7-tetrahydro-2H-indazol-5-yl]-amide]	> 36.4 µM	> 128 µg/mL	0.25 µg/mL (≈ 0.569 µM)	4 µg/mL (≈ 9.1 µM)
COc1ccc2nccc(-n3cc4c(n3)CCC(NC/C=C/c3ccc(F)cc3)C4)c2c1 (stereo not shown) [Example 57, [3-(4-Fluoro-phenyl)-allyl]-[2-(6-methoxy-quinolin-4-yl)-4,5,6,7-tetrahydro-2H-indazol-5-yl]-amine]	4.67 µM	64 µg/mL (≈ 149 µM)	1 µg/mL (≈ 2.33 µM)	2 µg/mL (≈ 4.67 µM)
COc1ccc2nccc(-n3cc4c(n3)CCC(NC(=O)c3cc5c(F)cc(F)cc5[nH]3)C4)c2n1 (stereo not shown) [Example 7, 4,6-Difluoro-1H-indole-2-carboxylic acid [2-(6-methoxyl-[1,5]naphthyridin-4-yl)-4,5,6,7-tetrahydro-2H-indazol-5-yl]-amide]	4.22 µM	> 128 µg/mL	0.25 µg/mL (≈ 0.527 µM)	> 128 µg/mL
CCN(CC)c1ccc(CNC2CCc3nn(-c4ccnc5ccc(OC)nc45)cc3C2)cc1 (stereo not shown) [Example 85, (4-Diethylamino-benzyl)-[2-(6-methoxy-[1,5]naphthyridin-4-yl)-4,5,6,7-tetrahydro-2H-indazol-5-yl]-amine]	4.38 µM	64 µg/mL (≈ 140 µM)	8 µg/mL (≈ 17.5 µM)	8 µg/mL (≈ 17.5 µM)
O=C1CSc2ccc(C(=O)NC3CCc4c(cnn4-c4cc(C(F)(F)F)nc5c(C(F)(F)F)cccc45)C3)cc2N1 (stereo not shown) [Example 96, 3-Oxo-3,4-dihydro-2H-benzo[1,4]thiazine-6-carboxylic acid [1-(2,8-bis-trifluoromethyl-quinolin-4-yl)-4,5,6,7-tetrahydro-1H-indazol-5-yl]-amide]	> 6.76 µM	64 µg/mL (≈ 108 µM)	8 µg/mL (≈ 13.5 µM)	32 µg/mL (≈ 54.1 µM)
COc1ccc2nccc(-n3cc4c(n3)CCC(NC(=O)c3ccc5c(c3)N(C)C(=O)CS5)C4)c2n1 (stereo not shown) [Example 69, 4-Methyl-3-oxo-3,4-dihydro-2H-benzo[1,4]thiazine-6-carboxylic acid [2-(6-methoxy-[1,5]naphthyridin-4-yl)-4,5,6,7-tetrahydro-2H-indazol-5-yl]-amide]	> 7.99 µM	> 128 µg/mL	4 µg/mL (≈ 7.99 µM)	64 µg/mL (≈ 128 µM)
COc1ccc2nccc(-n3cc4c(n3)CCC(NC(=O)c3cc5c(F)cc(F)cc5[nH]3)C4)c2c1 (stereo not shown) [Example 22, 4,6-Difluoro-1H-indole-2-carboxylic acid [2-(6-methoxy-quinolin-4-yl)-4,5,6,7-tetrahydro-2H-indazol-5-yl]-amide]	1.06 µM	> 128 µg/mL	0.5 µg/mL (≈ 1.06 µM)	8 µg/mL (≈ 16.9 µM)
COc1ccc2nccc(-n3cc4c(n3)CCC(NCc3cc5c(cc3Cl)OCO5)C4)c2n1 (stereo not shown) [Example 105, N-((6-chlorobenzo[d][1,3]dioxol-5-yl)methyl)-2-(6-methoxy-1,5-naphthyridin-4-yl)-4,5,6,7-tetrahydro-2H-indazol-5-amine]	4.31 µM	> 128 µg/mL	0.5 µg/mL (≈ 1.08 µM)	4 µg/mL (≈ 8.62 µM)
COc1ccc2nccc(-n3cc4c(n3)CCC(NC(=O)c3ccc(Br)s3)C4)c2c1 (stereo not shown) [Example 72, 5-Bromo-thiophene-2-carboxylic acid [2-(6-methoxy-quinolin-4-yl)-4,5,6,7-tetrahydro-2H-indazol-5-yl]-amide]	> 33.1 µM	> 128 µg/mL	2 µg/mL (≈ 4.14 µM)	> 128 µg/mL
COc1ccc2nccc(-n3cc4c(n3)CCC(NCc3ccc(N5CCCCC5)cc3)C4)c2n1 (stereo not shown) [Example 86, [2-(6-Methoxy-[1,5]naphthyridin-4-yl)-4,5,6,7-tetrahydro-2H-indazol-5-yl]-(4-piperidin-1-yl-benzyl)-amine]	4.27 µM	> 128 µg/mL	4 µg/mL (≈ 8.54 µM)	4 µg/mL (≈ 8.54 µM)
COc1ccc2nccc(-n3cc4c(n3)CCC(NC(=O)c3cccnc3Cl)C4)c2c1 (stereo not shown) [Example 78, 2-Chloro-N-[2-(6-methoxy-quinolin-4-yl)-4,5,6,7-tetrahydro-2H-indazol-5-yl]-nicotinamide]	> 36.9 µM	> 128 µg/mL	16 µg/mL (≈ 36.9 µM)	> 128 µg/mL
